In ChEMBL document CHEMBL3751755, “Developing steroidal aromatase inhibitors-an effective armament to win the battle against breast cancer” (Eur J Med Chem, 2015):

The compounds below were run against T1, Aromatase (Homo sapiens, UniProt P11511) (assay: Inhibition of human aromatase extracted from placental microsomes using [1beta-3H]androstenedione as substrate after 20 mins by radiometric assay). Conditions: not given.
T1 sequence (P11511 whole entry): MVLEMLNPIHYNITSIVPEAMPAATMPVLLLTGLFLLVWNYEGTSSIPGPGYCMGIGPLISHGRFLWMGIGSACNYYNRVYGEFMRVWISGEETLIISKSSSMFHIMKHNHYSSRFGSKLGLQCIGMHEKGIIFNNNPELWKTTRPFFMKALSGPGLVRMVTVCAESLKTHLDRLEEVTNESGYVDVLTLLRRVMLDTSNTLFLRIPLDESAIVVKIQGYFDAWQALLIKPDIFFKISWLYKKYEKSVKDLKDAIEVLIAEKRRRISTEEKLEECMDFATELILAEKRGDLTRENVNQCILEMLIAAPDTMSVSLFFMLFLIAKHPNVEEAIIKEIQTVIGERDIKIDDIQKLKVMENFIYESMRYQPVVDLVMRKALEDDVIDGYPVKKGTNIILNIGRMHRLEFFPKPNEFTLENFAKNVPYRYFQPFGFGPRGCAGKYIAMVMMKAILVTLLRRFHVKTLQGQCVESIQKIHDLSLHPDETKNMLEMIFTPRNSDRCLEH

Structure (SMILES)	IC50
C[C@]12CCCC=C1C(=O)C[C@@H]1[C@@H]2CC[C@]2(C)C(=O)CC[C@@H]12	1.7 µM
CC(=O)O[C@@H]1C=C2C(=O)C[C@@H]3[C@H](CC[C@]4(C)C(=O)CC[C@@H]34)[C@@]2(C)CC1	1.7 µM
CC1=C[C@@]2(C)C(=CC1=O)[C@@H](Br)C[C@@H]1[C@@H]2CC[C@]2(C)C(=O)CC[C@@H]12	0.71 µM
C[C@]12C=C(CCCc3ccccc3)C(=O)C=C1CC[C@@H]1[C@@H]2CC[C@]2(C)C(=O)CC[C@@H]12	0.14 µM
CC1=C[C@@]2(C)C(=CC1=O)CC[C@@H]1[C@@H]2CC[C@]2(C)C(=O)CC[C@@H]12	0.58 µM
C[C@]12CC[C@H](OC=O)C=C1C(=O)C[C@@H]1[C@@H]2CC[C@]2(C)C(=O)CC[C@@H]12	1.7 µM

These compounds were tested against T1, Aromatase (assay: Competitive inhibition of human aromatase extracted from placental microsomes after 10 mins in presence of [1beta-3H]androstenedione). Conditions: not given.

Structure (SMILES)	Ki
CCCC[C@@H]1C[C@@H]2[C@H](CC[C@]3(C)C(=O)CC[C@@H]23)[C@@]2(C)CCC(=O)C=C12	0.0014 µM
C[C@]12CCC(=O)C=C1[C@@H](Cc1ccccc1)C[C@@H]1[C@@H]2CC[C@]2(C)C(=O)CC[C@@H]12	0.01 µM
CC[C@@H]1C[C@@H]2[C@H](CC[C@]3(C)C(=O)CC[C@@H]23)[C@@]2(C)CCC(=O)C=C12	0.0014 µM
CCCC[C@H]1C[C@@H]2[C@H](CC[C@]3(C)C(=O)CC[C@@H]23)[C@@]2(C)CCC(=O)C=C12	0.0014 µM
C/C=C1\C[C@@H]2[C@H](CC[C@]3(C)C(=O)CC[C@@H]23)[C@@]2(C)CCC(=O)C=C12	0.0049 µM
C#CC[C@H]1C[C@@H]2[C@H](CC[C@]3(C)C(=O)CC[C@@H]23)[C@@]2(C)CCC(=O)C=C12	0.037 µM
C#CC[C@@H]1C[C@@H]2[C@H](CC[C@]3(C)C(=O)CC[C@@H]23)[C@@]2(C)CCC(=O)C=C12	0.01 µM
C=C[C@@H]1C[C@@H]2[C@H](CC[C@]3(C)C(=O)CC[C@@H]23)[C@@]2(C)CCC(=O)C=C12	0.0051 µM
C[C@@H]1C[C@@H]2[C@H](CC[C@]3(C)C(=O)CC[C@@H]23)[C@@]2(C)CCC(=O)C=C12	0.0014 µM
C[C@H]1C[C@@H]2[C@H](CC[C@]3(C)C(=O)CC[C@@H]23)[C@@]2(C)CCC(=O)C=C12	0.0014 µM

What follows are compounds tested against T1, Aromatase (assay: Competitive inhibition of human aromatase extracted from placental microsomes by Dixon plot analysis in presence of [1beta-3H]AD). Conditions: read-out: Ki.

Structure (SMILES)	Ki
CO[C@@H]1C[C@@]2(C)C(=CC1=O)CC[C@@H]1[C@@H]2CC[C@]2(C)C(=O)CC[C@@H]12	0.67 µM
C[C@]12CCC(=O)C=C1C(=O)C[C@@H]1[C@@H]2CC[C@]2(C)C(=O)[C@H](O)C[C@@H]12	1.18 µM
C[C@@H]1C[C@@]2(C)C(=CC1=O)CC[C@@H]1[C@@H]2CC[C@]2(C)C(=O)CC[C@@H]12	0.055 µM
C[C@]12C[C@@H](O)C(=O)C=C1CC[C@@H]1[C@@H]2CC[C@]2(C)C(=O)CC[C@@H]12	0.67 µM
CC1(C)C[C@@]2(C)C(=CC1=O)CC[C@@H]1[C@@H]2CC[C@]2(C)C(=O)CC[C@@H]12	0.0088 µM
C=C1C[C@@]2(C)C(=CC1=O)CC[C@@H]1[C@@H]2CC[C@]2(C)C(=O)CC[C@@H]12	0.068 µM
CO[C@H]1C=C2C(=O)C[C@@H]3[C@H](CC[C@]4(C)C(=O)CC[C@@H]34)[C@@]2(C)CC1	0.7 µM
C[C@H]1C[C@@]2(C)C(=CC1=O)CC[C@@H]1[C@@H]2CC[C@]2(C)C(=O)CC[C@@H]12	0.022 µM
C[C@]12C[C@@H](Br)C(=O)C=C1CC[C@@H]1[C@@H]2CC[C@]2(C)C(=O)CC[C@@H]12	0.045 µM
CCO[C@@H]1C[C@@]2(C)C(=CC1=O)CC[C@@H]1[C@@H]2CC[C@]2(C)C(=O)CC[C@@H]12	0.67 µM
C[C@]12C[C@@H](Cl)C(=O)C=C1CC[C@@H]1[C@@H]2CC[C@]2(C)C(=O)CC[C@@H]12	0.045 µM

Same assay, conditions: read-out: Ki(app)

Structure (SMILES)	Ki
C[C@]12CCC(=O)C=C1C(=O)C[C@@H]1[C@@H]2CC[C@]2(C)C(=O)[C@H](Br)C[C@@H]12	0.15 µM

The compounds below were run against T1, Aromatase. Conditions: not given.

Structure (SMILES)	Ki
CC1=C[C@@]2(C)C(=CC1=O)[C@@H](Br)C[C@@H]1[C@@H]2CC[C@]2(C)C(=O)CC[C@@H]12	0.081 µM
C[C@]12C=C(CCCc3ccccc3)C(=O)C=C1CC[C@@H]1[C@@H]2CC[C@]2(C)C(=O)CC[C@@H]12	0.0161 µM
CC1=C[C@@]2(C)C(=CC1=O)CC[C@@H]1[C@@H]2CC[C@]2(C)C(=O)CC[C@@H]12	0.046 µM

Each compound was assayed against T1, Aromatase (assay: Inhibition of human aromatase extracted from placental microsomes using 4-[14C]androstenedione as substrate at 0.25 to 1.25 uM after 15 mins). Conditions: not given.

Structure (SMILES)	INH
COC(=O)N[C@]12CCC(=O)C=C1CC[C@H]1[C@@H]3CCC(=O)[C@@]3(C)CC[C@@H]12	< 20%
C[C@]12CC[C@H]3[C@@H](CCC4=CC(=O)CC[C@@]43CNC(=O)C(F)(F)F)[C@@H]1CCC2=O	< 20%
CC(=O)NC[C@]12CCC(=O)C=C1CC[C@@H]1[C@@H]2CC[C@]2(C)C(=O)CC[C@@H]12	< 20%
C[C@]12CC[C@H]3[C@@H](CCC4=CC(=O)CC[C@@]43N)[C@@H]1CCC2=O	< 20%
C[C@]12CC[C@H]3[C@@H](CCC4=CC(=O)CC[C@@]43N=C=O)[C@@H]1CCC2=O	< 20%
C[C@]12CC[C@H]3[C@@H](CCC4=CC(=O)CC[C@@]43/C=N/O)[C@@H]1CCC2=O	< 20%

Each compound was assayed against T1, Aromatase (assay: Inhibition of human aromatase extracted from placental microsomes using [1beta-3H]AD as substrate by radiometric assay). Conditions: not given.

Structure (SMILES)	IC50
C[C@@H]1C[C@@]2(C)C(=CC1=O)CC[C@@H]1[C@@H]2CC[C@]2(C)C(=O)CC[C@@H]12	0.69 µM
CC1(C)C[C@@]2(C)C(=CC1=O)CC[C@@H]1[C@@H]2CC[C@]2(C)C(=O)CC[C@@H]12	0.089 µM
C=C1C[C@@]2(C)C(=CC1=O)CC[C@@H]1[C@@H]2CC[C@]2(C)C(=O)CC[C@@H]12	0.55 µM
C[C@H]1C[C@@]2(C)C(=CC1=O)CC[C@@H]1[C@@H]2CC[C@]2(C)C(=O)CC[C@@H]12	0.25 µM

What follows are compounds tested against T1, Aromatase (assay: Competitive inhibition of aromatase (unknown origin)). Conditions: not given.

Structure (SMILES)	Ki	IC50
C[C@]1(CC#N)CC[C@H]2[C@@H](CCC3=CC(=O)CC[C@@]32C)[C@@H]1CC#N	10 µM	–
C[C@]12CC[C@H]3[C@@H](CC=C4[C@H]5CSC[C@]43CCC5=O)[C@@H]1CCC2=O	10 µM	–
C[C@]12CC[C@H]3[C@@H](CCC4=CC(=O)CC[C@@]43CN=[N+]=[N-])[C@@H]1CCC2=O	0.005 µM	–
C[C@]12CC[C@H]3[C@@H](CCC4=CC(=O)CC[C@@]43C(=O)C(F)(F)F)[C@@H]1CCC2=O	–	26 µM
C[C@]12CC[C@H]3[C@@H](CCC4=CC(=O)[C@H]5CC[C@]43C5)[C@@H]1CCC2=O	10 µM	–
CSC[C@]12CCC(=O)C=C1CC[C@@H]1[C@@H]2CC[C@]2(C)C(=O)CC[C@@H]12	0.001 µM	–
C=CC1OC2(O)CC[C@]13C(=CC[C@@H]1[C@@H]3CC[C@]3(C)C(=O)CC[C@@H]13)C2 (stereo partly specified)	10 µM	–
C[C@]12CCC3C(C[C@H]4COC[C@@]35CCC(=O)C=C45)C1CCC2=O (stereo partly specified)	10 µM	–

What follows are compounds tested against T1, Aromatase (assay: Competitive inhibition of human aromatase extracted from placental microsomes by Dixon plot analysis in presence of [1beta-3H]androstenedione). Conditions: read-out: Ki.

Structure (SMILES)	Ki
C[C@]12CCCC=C1C(=O)C[C@@H]1[C@@H]2CC[C@]2(C)C(=O)CC[C@@H]12	0.61 µM
CC(=O)O[C@@H]1C=C2C(=O)C[C@@H]3[C@H](CC[C@]4(C)C(=O)CC[C@@H]34)[C@@]2(C)CC1	5.5 µM
CC[C@]12C=CC(=O)C=C1C=C[C@H]1[C@@H]3CCC(=O)[C@@]3(C)CC[C@@H]12	0.0082 µM
CC[C@]12C=CC(=O)C=C1CC[C@H]1[C@@H]3CCC(=O)[C@@]3(C)CC[C@@H]12	0.0082 µM
C[C@]12CC[C@H]3[C@@H](C(=O)C=C4CCCC[C@@]43CO)[C@@H]1CCC2=O	11.1 µM
CC[C@]12CCC(=O)C=C1C=C[C@@H]1[C@@H]2CC[C@]2(C)C(=O)CC[C@@H]12	0.0082 µM
C[C@]12CC[C@H](OC=O)C=C1C(=O)C[C@@H]1[C@@H]2CC[C@]2(C)C(=O)CC[C@@H]12	16 µM
CC[C@]12CCC(=O)C=C1CC[C@@H]1[C@@H]2CC[C@]2(C)C(=O)CC[C@@H]12	0.0082 µM

Same assay, conditions: read-out: Ki(app)

Structure (SMILES)	Ki
CCCCC[C@@H]1C[C@@H]2[C@H](CC[C@]3(C)C(=O)CC[C@@H]23)[C@@]2(C)C=CC(=O)C=C12	0.005 µM
C[C@]12CC[C@H]3[C@@H](C(=O)C=C4CCCC[C@@]43O)[C@@H]1CCC2=O	1.1 µM
CC(=O)O[C@]12CCCCC1=CC(=O)[C@H]1[C@@H]3CCC(=O)[C@@]3(C)CC[C@@H]12	1.1 µM
CC[C@@H]1C[C@@H]2[C@H](CC[C@]3(C)C(=O)CC[C@@H]23)[C@@]2(C)C=CC(=O)C=C12	0.0047 µM
